The source of these data is ChEMBL document CHEMBL4418912, “Methods of identifying antagonists of the hTAS2R46 bitter taste receptor” (2014).

Activity calls are given as the source filed them. The rule behind the calls is not given here.

Assay type in all cases: functional, cell-based
Assay [1] concerns the target T1, Taste receptor type 2 member 50 (Homo sapiens) (UniProt P59544).
T1 sequence (whole entry): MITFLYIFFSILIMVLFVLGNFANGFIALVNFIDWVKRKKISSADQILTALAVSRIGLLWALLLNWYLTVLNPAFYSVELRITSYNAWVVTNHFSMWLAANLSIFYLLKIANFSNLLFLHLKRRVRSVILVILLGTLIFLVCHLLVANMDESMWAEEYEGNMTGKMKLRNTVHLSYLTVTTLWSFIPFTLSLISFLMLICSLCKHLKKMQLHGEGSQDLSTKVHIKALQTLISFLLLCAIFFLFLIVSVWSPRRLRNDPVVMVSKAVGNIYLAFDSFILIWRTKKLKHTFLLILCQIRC
The assay is described as follows: Antagonist activity at recombinant human N-terminal rat ST3 receptor-fused TAS2R50 expressed in HEK293T cells co-expressing Galpha16gust44 assessed as inhibition of andrographolide-induced increase in intracellular calcium level at 100 uM by FLIPR assay.

Assay [2] has as its target T2, Taste receptor type 2 member 13 (Homo sapiens) (UniProt Q9NYV9).
T2 sequence (whole entry): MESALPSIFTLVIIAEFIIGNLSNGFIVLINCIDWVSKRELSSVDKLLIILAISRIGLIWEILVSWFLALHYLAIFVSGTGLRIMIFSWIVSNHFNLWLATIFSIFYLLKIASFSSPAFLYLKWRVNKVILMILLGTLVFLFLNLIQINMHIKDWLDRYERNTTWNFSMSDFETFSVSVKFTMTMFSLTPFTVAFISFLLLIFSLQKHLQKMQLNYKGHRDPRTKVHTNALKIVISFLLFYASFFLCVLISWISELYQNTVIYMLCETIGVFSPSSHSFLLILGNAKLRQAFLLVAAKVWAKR
The assay is described as follows: Antagonist activity at recombinant human N-terminal rat ST3 receptor-fused TAS2R13 expressed in HEK293T cells co-expressing Galpha16gust44 assessed as inhibition of denatonium benzoate-induced increase in intracellular calcium level at 100 uM by FLIPR assay. (In general: Calcium flux is commonly read through the fluorescence of an indicator in the cells.)

The target of assay [3] is T3, Taste receptor type 2 member 46 (Homo sapiens) (UniProt P59540).
T3 sequence (whole entry): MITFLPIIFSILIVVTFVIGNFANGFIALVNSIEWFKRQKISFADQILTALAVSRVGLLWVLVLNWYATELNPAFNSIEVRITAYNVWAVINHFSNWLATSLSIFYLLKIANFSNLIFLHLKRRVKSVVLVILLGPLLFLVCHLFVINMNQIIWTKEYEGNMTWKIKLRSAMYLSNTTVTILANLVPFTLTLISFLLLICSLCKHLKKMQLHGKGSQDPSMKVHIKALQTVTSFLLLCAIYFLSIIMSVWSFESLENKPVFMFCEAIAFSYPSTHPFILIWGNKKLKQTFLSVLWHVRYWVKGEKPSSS
In words: Agonist activity at recombinant human N-terminal rat ST3 receptor-fused TAS2R46 expressed in HEK293T cells co-expressing Galpha16gust44 assessed as increase in intracellular calcium level at 100 uM by FLIPR assay.

Assay [4] has as its target T4, Taste receptor type 2 member 4 (Homo sapiens) (UniProt Q9NYW5).
T4 sequence (whole entry): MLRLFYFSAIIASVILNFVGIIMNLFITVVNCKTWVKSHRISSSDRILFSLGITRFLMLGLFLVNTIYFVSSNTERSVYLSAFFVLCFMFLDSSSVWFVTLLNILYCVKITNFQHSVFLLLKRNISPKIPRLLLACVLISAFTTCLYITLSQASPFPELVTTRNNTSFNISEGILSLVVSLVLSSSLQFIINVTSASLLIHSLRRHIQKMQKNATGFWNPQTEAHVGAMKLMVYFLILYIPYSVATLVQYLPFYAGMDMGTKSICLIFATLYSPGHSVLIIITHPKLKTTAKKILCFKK
In words: Antagonist activity at recombinant human N-terminal rat ST3 receptor-fused TAS2R4 expressed in HEK293T cells co-expressing Galpha16gust44 assessed as inhibition of colchicine-induced increase in intracellular calcium level at 100 uM by FLIPR assay.

The target of assay [5] is T5, Taste receptor type 2 member 8 (Homo sapiens) (UniProt Q9NYW2).
T5 sequence (whole entry): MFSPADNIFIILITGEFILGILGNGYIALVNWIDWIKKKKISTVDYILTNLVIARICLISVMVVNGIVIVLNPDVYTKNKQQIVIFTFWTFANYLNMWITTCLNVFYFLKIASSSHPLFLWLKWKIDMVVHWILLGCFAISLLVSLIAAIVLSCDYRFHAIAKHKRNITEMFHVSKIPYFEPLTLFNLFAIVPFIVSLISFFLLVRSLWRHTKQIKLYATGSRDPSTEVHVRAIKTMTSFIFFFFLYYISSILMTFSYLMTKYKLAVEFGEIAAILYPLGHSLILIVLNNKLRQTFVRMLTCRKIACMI
In words: Antagonist activity at recombinant human N-terminal rat ST3 receptor-fused TAS2R8 expressed in HEK293T cells co-expressing Galpha16gust44 assessed as inhibition of chloramphenicol-induced increase in intracellular calcium level at 100 uM by FLIPR assay.

For assay [6], the target named is T6, Taste receptor type 2 member 14 (Homo sapiens) (UniProt Q9NYV8).
T6 sequence (whole entry): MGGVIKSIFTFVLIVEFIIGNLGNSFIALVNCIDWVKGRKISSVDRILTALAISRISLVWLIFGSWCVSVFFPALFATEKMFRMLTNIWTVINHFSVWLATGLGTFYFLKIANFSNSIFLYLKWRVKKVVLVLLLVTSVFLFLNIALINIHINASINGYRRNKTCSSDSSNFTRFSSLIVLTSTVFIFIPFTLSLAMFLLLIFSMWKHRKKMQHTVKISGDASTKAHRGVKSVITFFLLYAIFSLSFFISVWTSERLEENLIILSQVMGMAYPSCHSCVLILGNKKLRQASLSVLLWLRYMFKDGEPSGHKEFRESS
The assay is described as follows: Antagonist activity at recombinant human N-terminal rat ST3 receptor-fused TAS2R14 expressed in HEK293T cells co-expressing Galpha16gust44 assessed as inhibition of aristolochic acid-induced increase in intracellular calcium level at 100 uM by FLIPR assay.

The target in assay [7] is T7, Taste receptor type 2 member 38 (Homo sapiens) (UniProt P59533).
T7 sequence (whole entry): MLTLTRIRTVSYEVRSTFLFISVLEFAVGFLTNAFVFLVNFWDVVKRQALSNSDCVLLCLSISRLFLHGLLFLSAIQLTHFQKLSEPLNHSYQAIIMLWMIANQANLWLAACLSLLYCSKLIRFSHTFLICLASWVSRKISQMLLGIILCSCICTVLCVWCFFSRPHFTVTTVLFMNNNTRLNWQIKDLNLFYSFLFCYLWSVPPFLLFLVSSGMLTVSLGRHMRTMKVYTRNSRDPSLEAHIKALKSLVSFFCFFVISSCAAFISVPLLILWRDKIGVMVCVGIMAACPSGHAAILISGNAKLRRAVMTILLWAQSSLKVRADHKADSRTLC
In words: Antagonist activity at recombinant human N-terminal rat ST3 receptor-fused TAS2R38 expressed in HEK293T cells co-expressing Galpha16gust44 assessed as inhibition of phenylthiocarbamide-induced increase in intracellular calcium level at 100 uM by FLIPR assay.

Take `C/C1=C\C[C@H](O)[C@@H](C)C[C@H]2OC(=O)[C@@H](C)[C@@H]2CC1`: the inhibition result in assay [1], in assay [2], in assay [4], in assay [5], in assay [6] and in assay [7] was “inactive” in each case. In assay [3], the result was Active.

Regarding `C/C1=C\C[C@H](O)/C(C)=C/[C@H]2OC(=O)[C@@H](C)[C@@H]2CC1`, the inhibition result in assay [1], in assay [2], in assay [4], in assay [5], in assay [6] and in assay [7] was “inactive” each time. Besides, in assay [3], the result was inactive.
